Test [1] addresses human Gal-3 (hGal-3) (Homo sapiens (Human), UniProt P17931). The experiment in a line: competitive binding assay: biotinylated hGal-3 binding to microplate-adsorbed asialofetuin (ASF). The method, boiled down: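 Serially diluted compounds compete with biotinylated hGal-3 binding to adsorbed asialofetuin (3 hours, 4° C). After washing, streptavidin-peroxidase at 80 ng/mL for 1 hour at 4° C, with ABTS colour read-out. IC50 values are averaged over repeated runs.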

Test [2] concerns the target human Gal-1 (hGal-1) (Homo sapiens (Human), UniProt P09382). Nature of the test: competitive binding assay: biotinylated hGal-1 binding to microplate-adsorbed asialofetuin (ASF). Conditions: Table 15; read-out: IC50 (Galectin-1 inhibition). The method, boiled down:
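Spectrophotometric competition readout: after compound and biotinylated hGal-1 (300-1000 ng/mL) sit 3 h at 4° C on adsorbed asialofetuin, streptavidin-peroxidase (1 h, 4° C) and ABTS reveal residual binding. Reported IC50 values are means of repeat runs.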

The mark [3] stands for this setting: Table 10, 2-OMe-Gal inhibitors, read-out: IC50 (Gal-3 inhibition).
The mark [4] stands for this setting: Table 5, read-out: IC50 (Gal-3 inhibition).
Where [5] appears, read: Gal-3 inhibition, binding of biotinylated hGal-3 to ASF, mean values, read-out: IC50.
The mark [6] stands for this setting: Table 11, read-out: IC50 (Gal-3 inhibition).
Setting [7] is: Table 9, 2-OMe-Gal inhibitors, read-out: IC50 (Gal-3 inhibition).

Read-outs that look alike come from different tables or passages of the source.

The results in this text go back to patent US12404295B2, “(Hetero)aryl-methyl-thio-beta-D-galactopyranoside derivatives” (Idorsia Pharmaceuticals Ltd, priority 2019, dated 2025).

Chain of human Gal-3 (hGal-3) (P17931 whole entry): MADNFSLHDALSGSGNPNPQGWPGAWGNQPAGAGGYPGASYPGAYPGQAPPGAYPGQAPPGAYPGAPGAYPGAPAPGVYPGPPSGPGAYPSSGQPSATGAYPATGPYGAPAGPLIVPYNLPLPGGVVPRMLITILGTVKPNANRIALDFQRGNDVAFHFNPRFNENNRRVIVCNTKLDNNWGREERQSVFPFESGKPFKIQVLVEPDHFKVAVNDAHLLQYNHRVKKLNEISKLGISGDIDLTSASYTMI
Chain of human Gal-1 (hGal-1) (P09382 whole entry): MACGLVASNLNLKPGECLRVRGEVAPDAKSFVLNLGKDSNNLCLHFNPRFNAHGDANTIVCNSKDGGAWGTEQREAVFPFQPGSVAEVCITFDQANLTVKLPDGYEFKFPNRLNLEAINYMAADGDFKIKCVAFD

In the case of `CO[C@@H]1[C@@H](n2cc(-c3cc(F)c(F)c(F)c3)nn2)[C@@H](O)[C@@H](CO)O[C@H]1S[C@H](c1nocc1C)C1(O)CCOCC1` [Example 2.41.120R.I., (2R,3R,4S,5R,6S)-2-(Hydroxymethyl)-6-(((R)-(4-hydroxytetrahydro-2H-pyran-4-yl)(4-methylisoxazol-3-yl)methyl)thio)-5-methoxy-4-(4-(3,4,5-trifluorophenyl)-1H-1,2,3-triazol-1-yl)tetrahydro-2H-pyran-3-ol], the IC50 is 190 nM in test [1] (setting [3]) and 500 nM in test [2].
Take `CO[C@@H]1[C@@H](n2cc(-c3cc(F)c(F)c(F)c3)nn2)[C@@H](O)[C@@H](CO)O[C@H]1S[C@H](c1nccnc1Cl)C1(O)CCC(F)(F)CC1` [Example 2.44.133R.I., (2R,3R,4S,5R,6S)-6-(((R)-(3-Chloropyrazin-2-yl)(4,4-difluoro-1-hydroxycyclohexyl)methyl)thio)-2-(hydroxymethyl)-5-methoxy-4-(4-(3,4,5-trifluorophenyl)-1H-1,2,3-triazol-1-yl)tetrahydro-2H-pyran-3-ol [1,3-di-deoxy-1-((4,4-difluoro-1-hydroxy-cyclohexan-1-yl)-(3-(-chloro)pyrazin-2-yl)methyl-(R)-thio)-2-O-methyl-3-[4-(3,4,5-trifluorophenyl)-1H-1,2,3-triazol-1-yl]-b-D-galactopyranoside]]: the IC50 was 40 nM in test [1] (setting [3]) and 660 nM in test [2].
As to “(2S,3R,4S,5R,6R)-2-(((4-Hydroxy-2,2,6,6-tetramethyltetrahydro-2H-pyran-4-yl)(2-(trifluoromethyl)phenyl)methyl)thio)-6-(hydroxymethyl)-4-(4-(3,4,5-trifluorophenyl)-1H-1,2,3-triazol-1-yl)tetrahydro-2H-pyran-3,5-diol [Example 2.42.102.]”, the IC50 amounted to 380 nM in test [1] (setting [4]) and 18500 nM in test [2].
With `CC(C)Cc1ccccc1[C@H](S[C@@H]1O[C@H](CO)[C@H](O)[C@H](n2cc(-c3cc(F)c(F)c(F)c3)nn2)[C@H]1O)C(C)(C)O` [Example 2.31.107S., (2S,3R,4S,5R,6R)-2-(((S)-2-hydroxy-1-(2-isobutylphenyl)-2-methylpropyl)thio)-6-(hydroxymethyl)-4-(4-(3,4,5-trifluorophenyl)-1H-1,2,3-triazol-1-yl)tetrahydro-2H-pyran-3,5-diol], the 50% inhibitory concentration (IC50) was determined as 950 nM in test [1] (setting [5]) and 56600 nM in test [2].
Consider `CO[C@@H]1[C@@H](n2cc(-c3cc(F)c(F)c(F)c3)nn2)[C@@H](O)[C@@H](CO)O[C@H]1S[C@@H](c1nccc(Cl)c1Cl)C1(O)CCC(F)(F)CC1` (single isomer, unassigned) [Example 2.44.143R.I.], for which the figures for the IC50 in test [1] (setting [6]) and in test [2] were 70 nM and 860 nM, respectively.
On to `Cc1ccccc1C(O)C(S[C@@H]1O[C@H](CO)[C@H](O)[C@H](n2cc(-c3cc(F)c(F)c(F)c3)nn2)[C@H]1O)c1ccccc1C(F)(F)F` (stereo partly drawn) [Example 2.62.112., (2S,3R,4S,5R,6R)-2-((2-Hydroxy-2-(o-tolyl)-1-(2-(trifluoromethyl)phenyl)ethyl)thio)-6-(hydroxymethyl)-4-(4-(3,4,5-trifluorophenyl)-1H-1,2,3-triazol-1-yl)tetrahydro-2H-pyran-3,5-diol], for which the IC50 was determined as 1220 nM in test [1] (setting [5]) and 11700 nM in test [2].
For `CO[C@@H]1[C@@H](n2cc(-c3cc(F)c(F)c(F)c3)nn2)[C@@H](O)[C@@H](CO)O[C@H]1SC(c1nccc(Cl)c1C)C1(O)CCC(F)(F)CC1` (stereo partly drawn) [Example 2.44.141.I., (2R,3R,4S,5R,6S)-6-(((4-Chloro-3-methylpyridin-2-yl)(4,4-difluoro-1-hydroxycyclohexyl)methyl)thio)-2-(hydroxymethyl)-5-methoxy-4-(4-(3,4,5-trifluorophenyl)-1H-1,2,3-triazol-1-yl)tetrahydro-2H-pyran-3-ol], the IC50 in test [1] (setting [6]) came to 150 nM; in test [2] it was 860 nM.
On to `CCc1c([C@H](S[C@@H]2O[C@H](CO)[C@H](O)[C@H](n3cc(-c4cc(F)c(F)c(F)c4)nn3)[C@H]2O)C2(O)CCC(F)(F)CC2)noc1C1CC1` [Example 2.44.130S., (2S,3R,4S,5R,6R)-2-(((S)-(5-Cyclopropyl-4-ethylisoxazol-3-yl)(4,4-difluoro-1-hydroxycyclohexyl)methyl)thio)-6-(hydroxymethyl)-4-(4-(3,4,5-trifluorophenyl)-1H-1,2,3-triazol-1-yl)tetrahydro-2H-pyran-3,5-diol], for which the IC50 in test [1] (setting [5]) stood at 1850 nM; in test [2], 5650 nM.
`Cc1conc1[C@@H](S[C@@H]1O[C@H](CO)[C@H](O)[C@H](n2cc(-c3cc(F)c(F)c(F)c3)nn2)[C@H]1O)C(C)(C)O` [Example 2.31.120R., (2S,3R,4S,5R,6R)-2-(((R)-2-Hydroxy-2-methyl-1-(4-methylisoxazol-3-yl)propyl)thio)-6-(hydroxymethyl)-4-(4-(3,4,5-trifluorophenyl)-1H-1,2,3-triazol-1-yl)tetrahydro-2H-pyran-3,5-diol]: the IC50 in test [1] (setting [5]) worked out at 320 nM; in test [2], 1800 nM.
For `OC[C@H]1O[C@@H](S[C@H](c2ncccc2C(F)(F)F)C2(O)CCC(F)(F)CC2)[C@H](O)[C@@H](n2cc(-c3cc(F)c(F)c(F)c3)nn2)[C@H]1O` [Example 2.44.125R., (2S,3R,4S,5R,6R)-2-(((R)-(4,4-Difluoro-1-hydroxycyclohexyl)(3-(trifluoromethyl)pyridin-2-yl)methyl)thio)-6-(hydroxymethyl)-4-(4-(3,4,5-trifluorophenyl)-1H-1,2,3-triazol-1-yl)tetrahydro-2H-pyran-3,5-diol], the values for the IC50 in test [1] (setting [4]) and in test [2] were 50 nM and 200 nM, respectively.
Turning to `CO[C@@H]1[C@@H](n2cc(-c3cc(F)c(F)c(F)c3)nn2)[C@@H](O)[C@@H](CO)O[C@H]1S[C@H](c1nnccc1C)C1(O)CCC(F)(F)CC1` [Example 2.44.135R.I., (2R,3R,4S,5R,6S)-6-(((R)-(4,4-Difluoro-1-hydroxycyclohexyl)(4-methylpyridazin-3-yl)methyl)thio)-2-(hydroxymethyl)-5-methoxy-4-(4-(3,4,5-trifluorophenyl)-1H-1,2,3-triazol-1-yl)tetrahydro-2H-pyran-3-ol], the IC50 in test [1] (setting [7]) stood at 70 nM; in test [2], 200 nM.
As to `CO[C@@H]1[C@@H](n2cc(-c3cc(F)c(F)c(F)c3)nn2)[C@@H](O)[C@@H](CO)O[C@H]1SC(c1nccc(Cl)c1Cl)C1(O)CCC(F)(F)CC1` (stereo partly drawn) [Example 2.44.143.I., (2R,3R,4S,5R,6S)-6-(((3,4-Dichloropyridin-2-yl)(4,4-difluoro-1-hydroxycyclohexyl)methyl)thio)-2-(hydroxymethyl)-5-methoxy-4-(4-(3,4,5-trifluorophenyl)-1H-1,2,3-triazol-1-yl)tetrahydro-2H-pyran-3-ol], the IC50 is 140 nM in test [1] (setting [6]) and 850 nM in test [2].
Turning to `CCC(O)(CC)[C@H](S[C@@H]1O[C@H](CO)[C@H](O)[C@H](n2cc(-c3cc(F)c(F)c(F)c3)nn2)[C@H]1O)c1conc1C` [Example 2.32.120R., (2S,3R,4S,5R,6R)-2-(((R)-2-Ethyl-2-hydroxy-1-(3-methylisoxazol-4-yl)butyl)thio)-6-(hydroxymethyl)-4-(4-(3,4,5-trifluorophenyl)-1H-1,2,3-triazol-1-yl)tetrahydro-2H-pyran-3,5-diol], the IC50 in test [1] (setting [5]) turned out to be 1220 nM; in test [2], 2830 nM.
Regarding `OC[C@H]1O[C@@H](S[C@H](c2ncccc2C(F)(F)F)C2(O)CCCC2)[C@H](O)[C@@H](n2cc(-c3cc(F)c(F)c(F)c3)nn2)[C@H]1O` [Example 2.38.125R., (2S,3R,4S,5R,6R)-2-(((R)-(1-Hydroxycyclopentyl)(3-(trifluoromethyl)pyridin-2-yl)methyl)thio)-6-(hydroxymethyl)-4-(4-(3,4,5-trifluorophenyl)-1H-1,2,3-triazol-1-yl)tetrahydro-2H-pyran-3,5-diol], the IC50 in test [1] (setting [5]) came to 80 nM; in test [2] it was 480 nM.
For `CO[C@@H]1[C@@H](n2cc(-c3cc(F)c(F)c(F)c3)nn2)[C@@H](O)[C@@H](CO)O[C@H]1S[C@H](c1ncccc1C(F)(F)F)C1(O)CCC(F)(F)CC1` [Example 2.44.125R.I., (2R,3R,4S,5R,6S)-6-(((R)-(4,4-Difluoro-1-hydroxycyclohexyl)(3-(trifluoromethyl)pyridin-2-yl)methyl)thio)-2-(hydroxymethyl)-5-methoxy-4-(4-(3,4,5-trifluorophenyl)-1H-1,2,3-triazol-1-yl)tetrahydro-2H-pyran-3-ol], the IC50 in test [1] (setting [7]) worked out at 60 nM; in test [2], 260 nM.
Regarding `Cc1nccnc1[C@@H](S[C@@H]1O[C@H](CO)[C@H](O)[C@H](n2cc(-c3cc(F)c(F)c(F)c3)nn2)[C@H]1O)C1(O)CCC(F)(F)CC1` [Example 2.44.129R., (2S,3R,4S,5R,6R)-2-(((R)-(4,4-Difluoro-1-hydroxycyclohexyl)(3-methylpyrazin-2-yl)methyl)thio)-6-(hydroxymethyl)-4-(4-(3,4,5-trifluorophenyl)-1H-1,2,3-triazol-1-yl)tetrahydro-2H-pyran-3,5-diol], the results for the IC50 in test [1] (setting [5]) and in test [2] were 30 nM and 200 nM, respectively.
On to `Cc1ccccc1C(S[C@@H]1O[C@H](CO)[C@H](O)[C@H](n2cc(-c3cc(F)c(F)c(F)c3)nn2)[C@H]1O)C1(O)CCC1` (stereo partly drawn) [Example 2.34.102., (2S,3R,4S,5R,6R)-2-(((1-Hydroxycyclobutyl)(o-tolyl)methyl)thio)-6-(hydroxymethyl)-4-(4-(3,4,5-trifluorophenyl)-1H-1,2,3-triazol-1-yl)tetrahydro-2H-pyran-3,5-diol], for which the IC50 in test [1] (setting [4]) was 1000 nM; in test [2], 11000 nM.
